Measured values from patent US20240182945A1, “PRODUCTS FOR REGULATION OF EUKARYOTIC AND MICROBIAL CELLS GROWTH” (priority 2021, published 2024).

Columns and labels:
[1] = test system: bacteria of endotracheal aspirate, sputum, BAL, wound swab from patients with ventilator associated pneumonia; experiment: Signs of bacterial growth on multi-well agar test system supplemented with antibiotics (naked eye or microscopy); assay type: cell-based
Experimental: Endotracheal aspirate (n=3), sputum (n=3), BAL (n=2), wound swab (n=3) from patients with ventilator associated pneumonia were resuspended in PBS and 0.15 μL were plated on 24 well plate test system filled with Mixed medium (Columbia agar +Pepted Meat agar) (MM), Luria Broth (LB) agar, Pepted Meat agar (PMA), Columbia agar (CA), or Schaedler agar (SA).
Two wells were antibiotic free.
Biosamples were plated to the medium with a sterile swab with a slight pressure to the agar and making circular movements. Plates was incubated at 37 C and the analysis of the of microbial growth was monitored every 15 minutes from […] to 5 h, then hourly from 5 h to 8 h and then at 18 and 24 h post plating with a naked eye or with an AmScope microscope on 20× magnification with 12 mp camera.
Three methods (algorithms) how to analyze bacterial growth were used.
Method (Algorithm) #1. Lab technician, analyzed the appearance of bacterial growth by comparing the signs of bacterial growth in each well supplemented with antibiotic(s) at certain timepoint, with the signs of bacterial growth in the same well at previous time point(s).
Method (Algorithm)#2. Lab technician analyzed the appearance of bacterial growth by comparing the signs of bacterial growth in each well supplemented with antibiotic(s) with bacterial growth in antibiotic-free control
Method (Algorithm) #3. Lab technician analyzed the absence of bacterial growth in the wells in fixed time period of 3.0 h, 3.5 h; 4 h and 24 h.

[2] = test system: C. albicans, non-albicans Candida spp. Aspergillus spp. in oral swabs from patients with oral candidiasis; experiment: Signs of fungal growth on 12 well plate test system supplemented with antifungal antibiotics; assay type: cell-based; details: naked eye examination, samples resistant to the antibiotic
Experimental: Oral swabs (n=6) from patients with confirmed oral candidiasis caused by C. albicans, non-albicans Candida spp. Aspergillus spp., were dissolved with PBS and 0.1 uL were plated on 12 well plate test system filled with Mixed Medium 1 (see above), Mixed Medium 2 (Sabouraud agar+Potato Dextrose Agar+vitamins B12+B7) (MM2), Sabouraud agar (SA), Potato Dextrose Agar (PDA), Sabouraud's Heart Infusion (SABHI) agar. 11 wells were filled with media supplemented with antibiotics (taken at mean concentration of each antibiotic achieved in lungs at different timpoints post drug administration)—Nystatin, Amphotericin B, Clotrimazole, Fluconazole, Isavuconazole, Terbinafin, Posaconazole, Voriconazole, Anidulafungin, Caspofungin, Micafungin. One well was antibiotic free.
Plates was incubated at 30 C and the analysis of the presence/absence of microbial growth was monitored every 15 minutes from […] to 5 h, then hourly from 5 h to 8 h and then at 18 and 24 h post plating with a naked eye.
Three methods (algorithms) how to analyze fungal growth were used.
Method (Algorithm) #1. Lab technician, analyzed the appearance of fungal growth by comparing the signs of fungal growth in each well supplemented with antibiotic(s) at certain timepoint, with the signs of funal growth in the same well at previous time point(s).
Method (Algorithm)#2. Lab technician analyzed the appearance of fungal growth by comparing the signs of fungal growth in each well supplemented with antibiotic(s) with fungal growth in antibiotic-free control
Method (Algorithm) #3. Lab technician analyzed the absence of fungal growth in the wells in fixed time period of 3.5 h; 5 h and 24 h.

[3] = Method (Algorithm) #1, MM1 medium
[4] = Method (Algorithm) #1, MM2 medium
[5] = Method (Algorithm) #1, PDA medium
[6] = Method (Algorithm) #1, SA (Sabouraud agar)
[7] = Method (Algorithm) #1, SABHI medium
[8] = Method (Algorithm) #2, MM1 medium
[9] = Method (Algorithm) #2, MM2 medium
[10] = Method (Algorithm) #2, PDA medium
[11] = Method (Algorithm) #2, SA (Sabouraud agar)
[12] = Method (Algorithm) #2, SABHI medium

Piperacillin-tazobactam
Mean hour at which bacterial growth became visible on the wells supplemented with a certain antibiotic ([1]; microscopy examination, Method (Algorithm) #1, CA medium): 3.5 h | Mean hour at which bacterial growth became visible on the wells supplemented with a certain antibiotic ([1]; microscopy examination, Method (Algorithm) #1, LB medium): 4 h | Mean hour at which bacterial growth became visible on the wells supplemented with a certain antibiotic ([1]; microscopy examination, Method (Algorithm) #1, MM medium): 3.5 h | Mean hour at which bacterial growth became visible on the wells supplemented with a certain antibiotic ([1]; microscopy examination, Method (Algorithm) #1, PMA medium): 3.5 h | Mean hour at which bacterial growth became visible on the wells supplemented with a certain antibiotic ([1]; microscopy examination, Method (Algorithm) #1, SA medium): 3.5 h | Mean hour at which bacterial growth became visible on the wells supplemented with a certain antibiotic ([1]; microscopy examination, Method (Algorithm) #2, CA medium): 3.5 h | Mean hour at which bacterial growth became visible on the wells supplemented with a certain antibiotic ([1]; microscopy examination, Method (Algorithm) #2, LB medium): 4 h | Mean hour at which bacterial growth became visible on the wells supplemented with a certain antibiotic ([1]; microscopy examination, Method (Algorithm) #2, MM medium): 4 h | Mean hour at which bacterial growth became visible on the wells supplemented with a certain antibiotic ([1]; microscopy examination, Method (Algorithm) #2, PMA medium): 4 h | Mean hour at which bacterial growth became visible on the wells supplemented with a certain antibiotic ([1]; microscopy examination, Method (Algorithm) #2, SA medium): 3.5 h | Mean hour at which bacterial growth became visible on the wells supplemented with a certain antibiotic ([1]; naked eye examination, Method (Algorithm) #1, CA medium, samples resistant to the antibiotic): 3.5 h | Mean hour at which bacterial growth became visible on the wells supplemented with a certain antibiotic ([1]; naked eye examination, Method (Algorithm) #1, LB medium, samples resistant to the antibiotic): 4 h | Mean hour at which bacterial growth became visible on the wells supplemented with a certain antibiotic ([1]; naked eye examination, Method (Algorithm) #1, MM medium, samples resistant to the antibiotic): 3.5 h | Mean hour at which bacterial growth became visible on the wells supplemented with a certain antibiotic ([1]; naked eye examination, Method (Algorithm) #1, PMA medium, samples resistant to the antibiotic): 3.5 h | Mean hour at which bacterial growth became visible on the wells supplemented with a certain antibiotic ([1]; naked eye examination, Method (Algorithm) #1, SA medium, samples resistant to the antibiotic): 4 h | Mean hour at which bacterial growth became visible on the wells supplemented with a certain antibiotic ([1]; naked eye examination, Method (Algorithm) #2, CA medium, samples resistant to the antibiotic): 5.5 h | Mean hour at which bacterial growth became visible on the wells supplemented with a certain antibiotic ([1]; naked eye examination, Method (Algorithm) #2, LB medium, samples resistant to the antibiotic): 5 h | Mean hour at which bacterial growth became visible on the wells supplemented with a certain antibiotic ([1]; naked eye examination, Method (Algorithm) #2, MM medium, samples resistant to the antibiotic): 4 h | Mean hour at which bacterial growth became visible on the wells supplemented with a certain antibiotic ([1]; naked eye examination, Method (Algorithm) #2, PMA medium, samples resistant to the antibiotic): 4 h | Mean hour at which bacterial growth became visible on the wells supplemented with a certain antibiotic ([1]; naked eye examination, Method (Algorithm) #2, SA medium, samples resistant to the antibiotic): 5.5 h

Clc1ccccc1C(c1ccccc1)(c1ccccc1)n1ccnc1 [Clotrimazole]
Mean hour at which fungal growth became visible on the wells supplemented with a certain antibiotic [2, 3]: 3.5 h | Mean hour at which fungal growth became visible on the wells supplemented with a certain antibiotic [2, 4]: 4.5 h | Mean hour at which fungal growth became visible on the wells supplemented with a certain antibiotic [2, 5]: 7.5 h | Mean hour at which fungal growth became visible on the wells supplemented with a certain antibiotic [2, 6]: 5 h | Mean hour at which fungal growth became visible on the wells supplemented with a certain antibiotic [2, 7]: 6.5 h | Mean hour at which fungal growth became visible on the wells supplemented with a certain antibiotic [2, 8]: 4.5 h | Mean hour at which fungal growth became visible on the wells supplemented with a certain antibiotic [2, 9]: 6.5 h | Mean hour at which fungal growth became visible on the wells supplemented with a certain antibiotic [2, 10]: 8.5 h | Mean hour at which fungal growth became visible on the wells supplemented with a certain antibiotic [2, 11]: 7.5 h | Mean hour at which fungal growth became visible on the wells supplemented with a certain antibiotic [2, 12]: 6.5 h

OC(Cn1cncn1)(Cn1cncn1)c1ccc(F)cc1F [Fluconazole]
Mean hour at which fungal growth became visible on the wells supplemented with a certain antibiotic [2, 3]: 4 h | Mean hour at which fungal growth became visible on the wells supplemented with a certain antibiotic [2, 4]: 4.5 h | Mean hour at which fungal growth became visible on the wells supplemented with a certain antibiotic [2, 5]: 5 h | Mean hour at which fungal growth became visible on the wells supplemented with a certain antibiotic [2, 6]: 6.5 h | Mean hour at which fungal growth became visible on the wells supplemented with a certain antibiotic [2, 7]: 7.5 h | Mean hour at which fungal growth became visible on the wells supplemented with a certain antibiotic [2, 8]: 5.5 h | Mean hour at which fungal growth became visible on the wells supplemented with a certain antibiotic [2, 9]: 5.5 h | Mean hour at which fungal growth became visible on the wells supplemented with a certain antibiotic [2, 10]: 6.5 h | Mean hour at which fungal growth became visible on the wells supplemented with a certain antibiotic [2, 11]: 7 h | Mean hour at which fungal growth became visible on the wells supplemented with a certain antibiotic [2, 12]: 8 h

C[C@@H](c1nc(-c2ccc(C#N)cc2)cs1)[C@](O)(Cn1cncn1)c1cc(F)ccc1F [Isavuconazole]
Mean hour at which fungal growth became visible on the wells supplemented with a certain antibiotic [2, 3]: 5 h | Mean hour at which fungal growth became visible on the wells supplemented with a certain antibiotic [2, 4]: 4.5 h | Mean hour at which fungal growth became visible on the wells supplemented with a certain antibiotic [2, 5]: 6 h | Mean hour at which fungal growth became visible on the wells supplemented with a certain antibiotic [2, 6]: 6.5 h | Mean hour at which fungal growth became visible on the wells supplemented with a certain antibiotic [2, 7]: 7 h | Mean hour at which fungal growth became visible on the wells supplemented with a certain antibiotic [2, 8]: 6 h | Mean hour at which fungal growth became visible on the wells supplemented with a certain antibiotic [2, 9]: 5.5 h | Mean hour at which fungal growth became visible on the wells supplemented with a certain antibiotic [2, 10]: 7.5 h | Mean hour at which fungal growth became visible on the wells supplemented with a certain antibiotic [2, 11]: 7.5 h | Mean hour at which fungal growth became visible on the wells supplemented with a certain antibiotic [2, 12]: 8.5 h

C[C@@H]1[C@H](O)[C@@H](C)/C=C/C=C/CC/C=C/C=C/C=C/C=C/C(O[C@H]2O[C@H](C)[C@@H](O)[C@H](N)[C@@H]2O)CC2O[C@](O)(CC(O)C(O)CCC(O)CC(O)CC(O)CC(=O)O[C@H]1C)CC(O)C2C(=O)O (stereo partly drawn) [Nystatin]
Mean hour at which fungal growth became visible on the wells supplemented with a certain antibiotic [2, 3]: 4 h | Mean hour at which fungal growth became visible on the wells supplemented with a certain antibiotic [2, 4]: 4.5 h | Mean hour at which fungal growth became visible on the wells supplemented with a certain antibiotic [2, 5]: 5 h | Mean hour at which fungal growth became visible on the wells supplemented with a certain antibiotic [2, 6]: 6 h | Mean hour at which fungal growth became visible on the wells supplemented with a certain antibiotic [2, 7]: 5.5 h | Mean hour at which fungal growth became visible on the wells supplemented with a certain antibiotic [2, 8]: 4.5 h | Mean hour at which fungal growth became visible on the wells supplemented with a certain antibiotic [2, 9]: 6 h | Mean hour at which fungal growth became visible on the wells supplemented with a certain antibiotic [2, 10]: 6.5 h | Mean hour at which fungal growth became visible on the wells supplemented with a certain antibiotic [2, 11]: 6 h | Mean hour at which fungal growth became visible on the wells supplemented with a certain antibiotic [2, 12]: 7.5 h
